Results reported in patent publication US10517862B2, “Fused heterocyclic compound derivative and application thereof” (NHWA PHARMA. CORPORATION, priority 2015, dated 2019).

Columns and labels:
in vivo = conditions: both sexes, mouse, in vivo, po; single intragastric administration in mice; read-out: LD50 (po, mg/kg)
mice of Kunming breed = assay: MK-801 induced high activity in mice; type: in vivo; conditions: Mus musculus, 1.5 h, po, MK-801 0.1 mg/kg ip, spontaneous activities in 90 min
Protocol: Example 54: MK-801 Induced High Activity—the In Vivo Anti-Schizophrenia Activity of the Compounds
Healthy mice of Kunming breed (with half male and half female, (20±2) g) were provided by Qinglongshan Animal Cultivation Center, Nanjing.
Ascorbic acid was provided by Sinopharm Chemical Reagent Co. Ltd.
MK-801 was produced by Sigma Company, USA; the formulation method: 0.1% vitamin C was used to formulate a 1 mg/ml solution.
Test positive drugs: haloperidol, clozapine, risperidone, olanzapine, aripiprazole, ziprasidone, quetiapine.
Tween 80, with the concentration of 10%.
Mice with qualified body weight were selected, and randomly divided into blank group, model group, positive control group (risperidone group) and drug group. […] 1 h after the administration, 0.1% concentration of ascorbic acid was intraperitoneally injected to the blank group at 0.1 ml/10 g; and the model group, the positive control group (30 min) and the drug group were intraperitoneally injected the MK-801 solution at 0.1 mg/kg. Subsequently, the spontaneous activities of the mice of each group in 90 min were measured.

Catalepsy assay in mice = conditions: both sexes, Kunming, mouse, in vivo, po, bar test at 30, 60, 90 min
Protocol: Healthy mice of Kunming breed (with half male and half female, (22±2) g) were provided by Qinglongshan Animal Cultivation Center, Nanjing.
Instruments: self-made bar-grabbing apparatus: stainless steel bar in mice box, which was 0.3 cm in diameter and […].
Corresponding solvent double-distilled water was administered intragastrically to the negative control group and the model group, corresponding positive drugs were administered intragastrically to the positive drug groups (a small amount of acetic acid was first added and then double-distilled water was added when dissolving), and corresponding dosages of compounds were administered intragastrically to the compound groups for each dosage, with the volume for intragastric administration as 0.1 ml/10 g. At 30 min, 60 min, 90 min after the intragastric administration, the two forepaws of the mice were gently placed on the bars (which were 20 cm in length, 0.3 cm in diameter, and 5.5 cm above the bench), and the hindpaws of the animals were placed on the bottom of the box. The durations of the mice to maintain the posture with the two forepaws on the bars were recorded, and 30 s of spasticity without moving was considered as the positive response. In the case the forepaws of the mice were not put down persistently, the observation was terminated at 60 s. The numbers of animals with positive response in each of the compound dosage groups were counted.

D2 receptor = D2 receptor binding assay (3H-Spiperone, rat striatum membrane); conditions: for affinity with D2 (in words): summary of in vitro assay; for D2 Inhibition rate (%): test compound final concentration 10^−5 M, 3H-Spiperone, rat striatum membrane
Protocol: Preparation of D2 Membrane
Rats were decapitated on ice. […] The weight of the homogenized tubes were adjusted using a balance, and centrifugation was conducted. […] Centrifugation was conducted.
(§1) Materials for the Receptor Binding Assay

5HT2A receptor = 5HT2A receptor (Rattus norvegicus, UniProt P14842); assay: 5HT2A receptor binding assay ([3H]-Ketanserin, rat striatum membrane); conditions: for inhibition at 10 µM: read-out: 5HT2A Inhibition rate (%); for affinity with 5HT2A (in words): summary of in vitro assay
5HT2C receptor = target: T1, 5HT2C receptor (Rattus norvegicus, UniProt P08909); assay: 5HT2C receptor binding assay ([3H]-mesulergine, rat striatum membrane); conditions: for affinity with 5HT2C (in words): summary of in vitro assay; for inhibition at 10 µM: test compound final concentration 10^−5 M, [3H]-mesulergine, rat striatum membrane, read-out: 5HT2C Inhibition rate (%)
T1 construct: from tissue; host or cells: rat brain striatum
T1 sequence (P08909 33-460): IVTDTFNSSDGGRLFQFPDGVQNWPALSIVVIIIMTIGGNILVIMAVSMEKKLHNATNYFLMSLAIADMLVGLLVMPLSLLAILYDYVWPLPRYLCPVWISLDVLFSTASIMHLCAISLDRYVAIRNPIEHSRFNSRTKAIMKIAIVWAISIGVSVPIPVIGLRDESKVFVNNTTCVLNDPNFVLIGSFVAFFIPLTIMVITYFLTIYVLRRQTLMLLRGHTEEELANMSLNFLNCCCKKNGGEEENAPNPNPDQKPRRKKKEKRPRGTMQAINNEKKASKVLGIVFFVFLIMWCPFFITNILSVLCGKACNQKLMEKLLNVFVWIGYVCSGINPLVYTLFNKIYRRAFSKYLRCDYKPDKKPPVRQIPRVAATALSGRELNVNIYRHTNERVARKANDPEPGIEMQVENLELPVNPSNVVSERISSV
Protocol: Preparation of 5HT2C Membrane
Rats were decapitated on ice. […] Centrifugation was conducted.
as §1

Histamine H1 receptor = Histamine H1 receptor (Rattus norvegicus, UniProt P31390); assay: Histamine H1 receptor binding assay (3H-pyrilamine, rat cerebellum membrane); conditions: for inhibition at 10 µM: read-out: H1 Inhibition rate (%); for affinity with H1 (in words): summary of in vitro assay
Protocol: The supernatant was discarded to give pellets, and homogenate F was added again to the pellets for washing. Centrifugation was conducted and repeated 3 times.
(2) 100 μL of membrane preparation was added into each reaction tube.

D3 receptor = target: T2, D3 receptor (Homo sapiens, UniProt P35462); assay: D3 receptor assay ([3H]-Spiperone, HEK-293 cells); type: binding; conditions: for affinity with D3 (in words): summary of in vitro assay; for inhibition at 10 µM: test compound final concentration 10 μmol/L, [3H]-Spiperone, HEK-293 cells, read-out: D3 Inhibition rate (%)
T2 construct: expressed in transfected cells; host or cells: HEK-293
Protocol: Then the cells were centrifuged at 1000 rpm for 5 min, the supernatant was discarded, and the cell pellets was collected and stored in a −20° C. fridge for reservation. It was re-suspended with Tris-Cl (pH 7.4) when the assay was performed.
Tris was divided into aliquots by Genetimes Technology Inc.
Competitive binding test for receptors: 20 μl of each of the test compounds and 20 μl of the radioactive ligand together with 160 μl of the receptor proteins were added into the reaction tubes, and the final concentrations of the test compound and the positive drug were all 10 μmol/L. After 50 min of incubation in 30° C. water bath, the tubes were immediately moved to ice bath to terminate the reactions. GF/C glass fiber filter papers were used for rapid sucking filtration on a Millipore cell sample collector, 3 ml of elution buffer (50 mM Tris-HCl, PH 7.4) was applied for 3 times, and microwave was applied for 4-5 min for drying. The filter paper was moved into 0.5 ml centrifuge tube, and 500 μl of liposoluble scintillation cocktail was added. The tubes were allowed to stand still for over 30 min in dark, and the intensities of radioactivity were measured by a counter.

[1] = tested on: α1 norepinephrine receptor; assay: α1 norepinephrine receptor binding assay (3H-prazosin, rat cortex membrane); conditions: for affinity with α1 (in words): summary of in vitro assay; for α1 Inhibition rate (%): test compound final concentration 10^−5 M, 3H-prazosin, rat cortex membrane
Description: Preparation of Receptor Membrane of Norepinephrine
α1 Norepinephrine Receptor Binding Assay

Histamine H1 receptor, sequence (P31390 whole entry): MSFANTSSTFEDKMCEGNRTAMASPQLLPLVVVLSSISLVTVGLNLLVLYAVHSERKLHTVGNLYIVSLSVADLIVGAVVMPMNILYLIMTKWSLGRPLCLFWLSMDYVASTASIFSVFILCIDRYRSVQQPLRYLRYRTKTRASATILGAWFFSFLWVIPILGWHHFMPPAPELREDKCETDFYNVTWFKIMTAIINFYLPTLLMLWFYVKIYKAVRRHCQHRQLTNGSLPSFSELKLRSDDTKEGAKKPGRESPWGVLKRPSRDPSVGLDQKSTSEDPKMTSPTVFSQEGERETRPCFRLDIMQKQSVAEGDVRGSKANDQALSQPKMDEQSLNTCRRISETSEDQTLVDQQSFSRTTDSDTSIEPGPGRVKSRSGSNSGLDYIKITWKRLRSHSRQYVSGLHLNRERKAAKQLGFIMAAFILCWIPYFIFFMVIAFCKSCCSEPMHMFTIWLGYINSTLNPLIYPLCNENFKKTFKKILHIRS
T2 sequence (P35462 whole entry): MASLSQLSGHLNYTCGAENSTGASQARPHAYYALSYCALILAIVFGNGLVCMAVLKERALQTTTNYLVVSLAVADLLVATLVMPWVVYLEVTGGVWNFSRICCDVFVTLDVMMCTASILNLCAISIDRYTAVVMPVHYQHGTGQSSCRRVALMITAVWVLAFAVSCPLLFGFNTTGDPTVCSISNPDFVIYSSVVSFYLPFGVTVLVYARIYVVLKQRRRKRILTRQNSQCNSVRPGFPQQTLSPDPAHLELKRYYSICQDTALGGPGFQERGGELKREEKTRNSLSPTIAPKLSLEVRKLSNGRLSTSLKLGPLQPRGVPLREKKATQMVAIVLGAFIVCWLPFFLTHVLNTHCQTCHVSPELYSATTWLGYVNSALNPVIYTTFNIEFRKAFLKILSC
5HT2A receptor, sequence (P14842 whole entry): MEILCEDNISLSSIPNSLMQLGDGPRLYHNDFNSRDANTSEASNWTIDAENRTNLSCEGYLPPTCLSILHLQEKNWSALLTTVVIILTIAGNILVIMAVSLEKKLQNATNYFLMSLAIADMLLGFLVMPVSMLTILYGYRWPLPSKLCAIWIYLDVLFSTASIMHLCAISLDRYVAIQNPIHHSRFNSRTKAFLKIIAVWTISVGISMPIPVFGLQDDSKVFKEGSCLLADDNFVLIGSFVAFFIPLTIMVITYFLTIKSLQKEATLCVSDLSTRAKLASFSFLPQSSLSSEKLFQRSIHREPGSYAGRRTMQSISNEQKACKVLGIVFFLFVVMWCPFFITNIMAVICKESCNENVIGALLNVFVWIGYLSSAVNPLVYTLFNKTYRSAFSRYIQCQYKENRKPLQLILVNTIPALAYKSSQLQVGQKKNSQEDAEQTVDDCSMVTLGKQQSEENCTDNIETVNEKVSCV

SMILES	LD50 at 7 days (in vivo) [mg/kg]	ED50 (mice of Kunming breed) [mg/kg]	ED50 (Catalepsy assay in mice) [mg/kg]	affinity with D2 (in words) (D2 receptor)	D2 Inhibition rate (%) (D2 receptor)	inhibition at 10 µM (5HT2A receptor) [%]	affinity with 5HT2A (in words) (5HT2A receptor)	affinity with 5HT2C (in words) (5HT2C receptor)	inhibition at 10 µM (5HT2C receptor) [%]	inhibition at 10 µM (Histamine H1 receptor) [%]	affinity with H1 (in words) (Histamine H1 receptor)	affinity with D3 (in words) (D3 receptor)	inhibition at 10 µM (D3 receptor) [%]	affinity with α1 (in words) [1]	α1 Inhibition rate (%) [1] [%]
O=C(CCCN1CCC(c2noc3cc(F)ccc23)CC1)c1cc2c3c(c1)CCC(=O)N3CCC2 [Compound 5]	> 2000	2.2	> 200	high affinities	99.40	99.5	high affinities	low affinities	66.8	44.5	low affinities	high affinities	98	low affinities	43.75
O=C(CCN1CCC(c2noc3cc(F)ccc23)CC1)c1cc2c3c(c1)CCN3C(=O)CC2 [Compound 12]	> 2000	0.06	8.45	high affinities	97.75	94.4	high affinities	low affinities	56.5	41.4	low affinities	high affinities	94.9	low affinities	58.91
